For one assay, the system named is ERα phosphorylation. As to the kind of experiment: E2-induced ERα phosphorylation, Western blotting, MCF-7. The format is cell-based, human. The following applies: 3 hours to 24 hours after E2.
The test system of assay [1] is PHB2/REA localization in MCF-7 cells. Briefly: Nuclear translocation of PHB2/REA (fractionation, immunoblotting, immunostaining). Type of assay: cell-based, human. The following applies: for nuclear translocation of PHB2/REA, temporal: 1 hour to 24 hours after administration. The method, then: FIG. 3-1 is a diagram illustrating that ERAP1-peptide treatment promotes nuclear translocation of PHB2. […] MCF-7 cells were stimulated for 24 hours with 10 μM ERAP1-peptide and/or 10 nM E2. The cells were fractioned into mitochondria, cytoplasm, and nuclear fractions by specific gravity centrifugation. Then, each fraction was subjected to immunoblotting analysis using an anti-ERAP1 antibody and an anti-PHB2 antibody. PRDX3, α/β-Tublin (Tublin) and lamin B are markers for mitochondria, cytoplasm, and nuclear fractions, respectively (upper panel). The protein content of each fraction was evaluated with Coomassie-stained SDS-PAGE gel (lower panel). […] KPL-3C cells were treated for 24 hours with 10 μM HA-tagged ERAP1-peptide and/or 10 nM E2. Then, the cells were fractionated into cytoplasm and nuclear fractions by specific gravity centrifugation. Then, which fraction was immunoprecipitated with anti-ERα antibody, an anti-ERAP1 antibody or an anti-PHB2 antibody. Then, immunoblotting was performed with each antibody shown in the figure (an anti-ERAP1 antibody, an anti-ERα antibody, an anti-PHB2 antibody and an anti-HA antibody (Peptide)). α/β-Tubulin (Tubulin) and Lamin B are markers for cytoplasm and nuclear fractions, respectively.
FIG. 4-1 is a diagram illustrating that the ERAP1-peptide promotes nuclear translocation of PHB2. (A) The upper panel illustrates representative images of stained immune cells, showing the intracellular localization of PHB2. MCF-7 cells were treated with 10 μM ERAP1-peptide or ERAP1-scramble peptide. Subsequently, the cells were treated with 10 nM E2. After the immobilization, the cells were subjected to immunofluorescent staining using an anti-PHB2 antibody and DAPI (for discriminating the nucleus).
FIG. 4-2 is a diagram illustrating that the ERAP1-peptide promotes nuclear translocation of PHB2. (B) is a diagram illustrating the results of immunoblotting analysis by which the intracellular localization of PHB2 was detected, MCF-7 cells were treated with the ERAP1-peptide or the ERAP1-scramble peptide. Subsequently immediately, the cells were treated with 10 nM E2. The cells were fractionated into cytoplasm and nuclear fractions after 1 hour or 24 hours. Each fraction was immunoprecipitated with anti-ERα antibody, an anti-ERAP1 antibody or a PH82 antibody. […]
MCF-7 cells were seeded in an 8-well chamber (Laboratory-Tek II Chamber Slide System, Nalgen Nunc International, Naperville, Ill., USA) in 5×10^4 cells/well, and cultured under estrogen-free condition for 24 hours. […] The fluorescence image was obtained under Olympus IX71 microscope (Tokyo, Japan). […]
On the technique in general: A western blot detects proteins with antibodies after separation by electrophoresis.

Turning to `CSCC[C@H](NC(=O)[C@H](CCC(N)=O)NC(=O)[C@H](CCCNC(=N)N)NC(=O)[C@H](CCCNC(=N)N)NC(=O)[C@H](CCCNC(=N)N)NC(=O)[C@H](CCCNC(=N)N)NC(=O)[C@H](CCCNC(=N)N)NC(=O)[C@H](CCCNC(=N)N)NC(=O)[C@H](CCCNC(=N)N)NC(=O)[C@H](CCCNC(=N)N)NC(=O)[C@H](CCCNC(=N)N)NC(=O)[C@H](CCCNC(=N)N)NC(=O)[C@@H](N)CCCNC(=N)N)C(=O)N[C@@H](CC(C)C)C(=O)N[C@@H](CO)C(=O)N[C@@H](CC(=O)O)C(=O)N[C@@H](CC(C)C)C(=O)N[C@H](C(=O)N[C@@H](CC(C)C)C(=O)N[C@@H](CCC(N)=O)C(=O)N[C@@H](CC(C)C)C(=O)N[C@@H](CCCNC(=N)N)C(=O)N[C@@H](CCC(N)=O)C(=O)N[C@@H](CCCNC(=N)N)C(=O)O)[C@@H](C)O` [ERAP1-peptide], the “E2-dependent phosphorylation of six sites of ERα” value in the assay on ERα phosphorylation is recorded as “suppressed to the same degree as that of no administration of E2”. In addition, the “nuclear translocation of PHB2/REA, temporal” value in assay [1] is reported as “Prompt nuclear translocation of inherent PHB2/REA at 1 hour”. In assay [1] (E2 and peptide at the same time, 10 μM, 24 hours), the “translocation of PHB2/REA from the cytoplasm into the nucleus” value is recorded as “remarkable translocation of PHB2/REA from the cytoplasm into the nucleus”.

“DRQLQLSTLQRML (SEQ ID NO: 28) (ERAP1-scramble peptide) [reference compound]”: the “E2-dependent phosphorylation of six sites of ERα” value in the assay on ERα phosphorylation is “the suppression effect was not recognized”. Besides, the “nuclear translocation of PHB2/REA, temporal” value in assay [1] is reported as “not recognized”.

The values are drawn from patent publication US9725490B2, “ERAP1-derived peptide and use thereof” (TOKUSHIMA UNIVERSITY, priority 2011, dated 2017).
